Measured values: patent publication US8912144B2, “Method for treating stroke via administration of NEP1-40 and inosine” (Children's Medical Center Corporation, priority 2003, dated 2014)

Test system: corticospinal neurons (CSNs/CSMNs)
Assay: Laser-capture microdissection and Illumina microarray gene expression in corticospinal neurons contralateral to stroke
Assay type: in vivo, rat
Procedure: In a separate group of animals (n=20), layer V pyramidal cells of the sensorimotor cortex were retrogradely labeled by injecting Alexa-Fluor-488-conjugated cholera toxin B subunit (CTB; 300 U/μl in sterile saline) into the cervical spinal cord. For this, animals were anesthetized with a combination of ketamine and Domitor (medetomidine) and a laminectomy was performed at the cervical level of the spinal cord (C2-C4). CTB was stereotaxically delivered into four sites lateral to the corticospinal tract. Injections (1.3 μl) were spaced 1 mm apart on the rostro-caudal axis, and were made 0.5 mm to the left and right of the midline. After allowing two weeks for transport of the tracer, we performed either sham surgery with no treatment (n=6) or stroke surgery combined with saline (n=3) or inosine (n=4) treatment as described above. Seven days later, animals were decapitated under transient gas anesthesia, brains were removed and rinsed in cold RPMI medium, and a tissue block containing the sensorimotor cortex was dissected and placed in OCT Tissue Tek Medium (Sakura Finetek USA Inc., CA) on dry ice within five minutes of death. Ten μm sections were cut onto precleaned Gold Seal RITE-ON glass slides (Gold Seal Prod-ucts, Portsmouth, N.H.), placed on dry ice, and rapidly stored at −80° C.
Slide-mounted sections were thawed and dehydrated in RNAse-free ethanol gradients and xylene. Retro-gradely labeled, fluorescent cortical pyramidal cells in the undamaged hemisphere were individually captured using the Arcturus VERITAS system. ≧500 cells were collected from each animal and stored in Arcturus extraction buffer at −80° C. Total RNA was extracted from cells using the Micro-to-Midi TotalRNA Purification System (Invitrogen, Carlsbad Calif.) and double-amplified using the TargetAmp 2-Round Aminoallyl-aRNA Amplification kit 1.0 (Epicentre, Madison, Wis.). Amplified RNA was checked for average fragment length using the Agilent RNA 6000 Nano LabChip kit (Agilent Technologies, Santa Clara, Calif.) and then biotinylated and hybridized (1 μg) on Illumina RatRef-12 Expression BeadChip arrays (Illumina, San Diego Calif.), querying the expression of >22,000 RefSeq-curated rat transcripts. Results were obtained from a total of 15 samples representing 6 untreated controls, 4 animals with stroke treated with saline and 5 animals with stroke treated with inosine. Slides were processed and scanned with Illumina BeadStation platform according to the manufacturer protocol.
Raw data was analyzed using Bioconductor packages (www.bioconductor.org, (Gentleman et al., 2004)). Low level quality-control analysis was performed using inter-array Pearson correlation and clustering based on variance. Two arrays (1 saline and 1 inosine-treated) were outliers and were excluded from the analysis. Data was normalized using quantile normalization, and analysis of differential expression was performed using a linear model fitting (LIMMA package, (Smyth, 2005). Differentially expressed genes were classified according to gene ontology using Bioconductor packages and online tools (DAVID, http://david.abcc.ncifcrf.gov/). Pathway analysis was carried out using Ingenuity Pathway Analysis (Ingenuity Systems, www.ingenuity.com).

Compound: OC[C@H]1O[C@@H](n2cnc3c(O)ncnc32)[C@H](O)[C@@H]1O [inosine]
- Signal Intensity, MGC94053 (ILMN_53763, inosine after stroke): 469
- Fold-Induction Stroke, ino vs. cntrl, Cnot7 (ILMN_53955): 0.60
- Signal Intensity, Cnot7 (ILMN_53955, inosine after stroke): 427
- Fold-Induction Stroke, ino vs. cntrl, Rnf11 (ILMN_54109): 0.49
- Signal Intensity, Rnf11 (ILMN_54109, inosine after stroke): 825
- Fold-Induction Stroke, ino vs. cntrl, Scara3 (ILMN_54123): 0.78
- Signal Intensity, Scara3 (ILMN_54123, inosine after stroke): 470
- Fold-Induction Stroke, ino vs. cntrl, Gabarapl2 (ILMN_54140): 0.75
- Signal Intensity, Gabarapl2 (ILMN_54140, inosine after stroke): 1324
- Fold-induction CSMNs: Vim (ILMN_54242, over and above inosine's effect of decreasing stroke-induced changes): 1.96 fold
- Fold-Induction Stroke, ino vs. cntrl, LOC501145 (ILMN_54288): 0.70
- Signal Intensity, LOC501145 (ILMN_54288, inosine after stroke): 626
- Fold-Induction Stroke, ino vs. cntrl, Echdc1 (ILMN_54458): 0.67
- Signal Intensity, Echdc1 (ILMN_54458, inosine after stroke): 531
- Fold-Induction Stroke, ino vs. cntrl, LOC498407 (ILMN_54747): 0.64
- Signal Intensity, LOC498407 (ILMN_54747, inosine after stroke): 1261
- Fold-Induction Stroke, ino vs. cntrl, Fuca2 (ILMN_55057): 0.56
- Signal Intensity, Fuca2 (ILMN_55057, inosine after stroke): 662
- Fold-Induction Stroke, ino vs. cntrl, Grm3 (ILMN_55270): 0.50
- Signal Intensity, Grm3 (ILMN_55270, inosine after stroke): 387
- Fold-induction CSMNs: Rnaset2 (ILMN_55431, over and above inosine's effect of decreasing stroke-induced changes): 1.88 fold
- Fold-Induction, complement cascade gene C1qg (ILMN_55502, LCM-captured CSMNs contralateral a stroke): 3.96 fold
- Fold-induction CSMNs: C1qg (ILMN_55502, over and above inosine's effect of decreasing stroke-induced changes): 2.73 fold
- Fold-Induction Stroke, ino vs. cntrl, Map2k4 (ILMN_55667): 0.65
- Signal Intensity, Map2k4 (ILMN_55667, inosine after stroke): 9089
- Fold-Induction Stroke, ino vs. cntrl, LOC498618 (ILMN_55685): 0.49
- Signal Intensity, LOC498618 (ILMN_55685, inosine after stroke): 3089
- Fold-Induction, complement cascade gene C1s (ILMN_55706, LCM-captured CSMNs contralateral a stroke): 2.07 fold
- Fold-induction CSMNs: C1s (ILMN_55706, over and above inosine's effect of decreasing stroke-induced changes): 2.03 fold
- Fold-induction CSMNs: Bzrp (ILMN_55731, over and above inosine's effect of decreasing stroke-induced changes): 2.38 fold
- Fold-Induction Stroke, ino vs. cntrl, Klhl2 (ILMN_55879): 0.78
- Signal Intensity, Klhl2 (ILMN_55879, inosine after stroke): 516
- Fold-Induction Stroke, ino vs. cntrl, Tceal1 (ILMN_55905): 0.57
- Signal Intensity, Tceal1 (ILMN_55905, inosine after stroke): 286
- Fold-Induction Stroke, ino vs. cntrl, LOC502317 (ILMN_55909): 0.40
- Signal Intensity, LOC502317 (ILMN_55909, inosine after stroke): 689
- Fold-Induction Stroke, ino vs. cntrl, Nr2f1 (ILMN_55914): 0.52
- Signal Intensity, Nr2f1 (ILMN_55914, inosine after stroke): 526
- Fold-Induction Stroke, ino vs. cntrl, Slc16a1 (ILMN_55995): 0.56
- Signal Intensity, Slc16a1 (ILMN_55995, inosine after stroke): 827
- Fold-Induction Stroke, ino vs. cntrl, Tpt1 (ILMN_56078): 0.89
- Signal Intensity, Tpt1 (ILMN_56078, inosine after stroke): 11229
- Fold-Induction Stroke, ino vs. cntrl, Acsl3 (ILMN_56170): 0.50
- Signal Intensity, Acsl3 (ILMN_56170, inosine after stroke): 389
- Fold-Induction Stroke, ino vs. cntrl, Scn1a (ILMN_56183): 0.88
- Signal Intensity, Scn1a (ILMN_56183, inosine after stroke): 517
- Fold-Induction Stroke, ino vs. cntrl, Cetn3 (ILMN_56556): 0.63
- Signal Intensity, Cetn3 (ILMN_56556, inosine after stroke): 649
- Fold-Induction Stroke, ino vs. cntrl, Zfp68 (ILMN_56593): 0.59
- Signal Intensity, Zfp68 (ILMN_56593, inosine after stroke): 727
- Fold-Induction Stroke, ino vs. cntrl, Pnrc1 (ILMN_56710): 0.65
- Signal Intensity, Pnrc1 (ILMN_56710, inosine after stroke): 626
- Fold-Induction Stroke, ino vs. cntrl, RGD1308082 (ILMN_56896): 0.62
- Signal Intensity, RGD1308082 (ILMN_56896, inosine after stroke): 428
- Fold-Induction Stroke, ino vs. cntrl, Scg3 (ILMN_56986): 0.69
- Signal Intensity, Scg3 (ILMN_56986, inosine after stroke): 870
- Fold-Induction Stroke, ino vs. cntrl, Plp (ILMN_57073): 0.51
- Signal Intensity, Plp (ILMN_57073, inosine after stroke): 1222
- Fold-induction CSMNs: Serpinb1a (ILMN_57422, over and above inosine's effect of decreasing stroke-induced changes): 2.41 fold
- Fold-Induction Stroke, ino vs. cntrl, Lisch7 (ILMN_57520): 0.69
- Signal Intensity, Lisch7 (ILMN_57520, inosine after stroke): 484
- Fold-Induction Stroke, ino vs. cntrl, Olfm3 (ILMN_57553): 0.62
- Signal Intensity, Olfm3 (ILMN_57553, inosine after stroke): 473
- Fold-Induction Stroke, ino vs. cntrl, Vmp1 (ILMN_57554): 0.57
- Signal Intensity, Vmp1 (ILMN_57554, inosine after stroke): 1305
- Fold-Induction Stroke, ino vs. cntrl, Sc4mol (ILMN_57630): 0.52
- Signal Intensity, Sc4mol (ILMN_57630, inosine after stroke): 271
- Fold-Induction Stroke, ino vs. cntrl, RGD1308373 (ILMN_57697): 0.66
- Signal Intensity, RGD1308373 (ILMN_57697, inosine after stroke): 2921
- Fold-Induction Stroke, ino vs. cntrl, Gucy1b3 (ILMN_57719): 0.57
- Signal Intensity, Gucy1b3 (ILMN_57719, inosine after stroke): 3956
- Fold-Induction Stroke, ino vs. cntrl, Tnnc2 (ILMN_57928): 0.48
- Signal Intensity, Tnnc2 (ILMN_57928, inosine after stroke): 650
